Like-named read-outs stand apart in the source and are kept apart here.
How the values were obtained:
hCA-IX [1] = target: T1, hCA-IX (Homo sapiens, UniProt Q16790); assay: In vitro inhibition of human CA-IX (p-nitrophenyl acetate, 96-well plate); assay type: biochemical; details: for Selectivity / specificity for hCA-IX (in words): hCA-IX versus hCA-II; for IC50 / hCA-IX IC50 ± SEM: purified enzyme, substrate p-nitrophenyl acetate, 25 °C, µM from b1; for IC50: unit inferred, read-out: hCA-IX IC50 ± SEM; for hCA-IX IC50 ± SEM: unit not given
[2] = MTT assay in normal breast cell line MCF-10A; details: human
Method: (§1) This cell line is ER, PR, and E-cadherin negative, and it lacks the growth factor receptor HER2. […] The normal human breast cell line (MCF-10A) was used as a control in the study. Cells were cultured in DMEM supplemented with 10% FBS and 1% antibiotics (100 U/mL penicillin). […] After 48 h of incubation, 20 μL of MTT solution (5 mg/mL) was pipetted into each well and incubated for another 4 h. The medium was later discarded, and the formazan precipitate was dissolved in DMSO. The absorbance of the mixtures was determined by a microplate reader at 570 nm. All the experiments were performed in triplicate, and the cytotoxicity was expressed as a percentage of cell viability and compared with untreated control cells [33]. % Viability=Absorbance of sample/Absorbance of control×100
(§2) The dose–response and IC50 values were calculated by IBM SPSS Statistics 26 software.
(§3) Simultaneously, the normal human breast epithelial cell line (MCF-10A) was used as a positive control. The MTT [3-(4,5-dimethylthiazol-2-yl)-2,5-diphenyltetrazolium bromide] assay was used to determine the decrease in cancer cell viability induced by the synthesized hybrids.

MCF-10A = assay: MTT assay in normal breast cell line MCF-10A; details: for inhibition at 100 µM / IC50: Homo sapiens, MCF-10A, 48 h; for inhibition at 100 µM: read-out: MCF-10A %Inhibition; for IC50: read-out: MCF-10A IC50
Method: as §1, §2, §3

MDA-MB-231 = assay: MTT assay in breast cancer cell line MDA-MB-231; details: for inhibition at 100 µM: read-out: MDA-MB-231 %Inhibition; for viability at 100 µM: read-out: MDA-MB-231 %Viability
Method: as §1, §2, §3

hCA-IX [3] = target: T1, hCA-IX; assay: Enzyme kinetic (mechanistic) studies on hCA-IX; assay type: biochemical; details: for Type of Inhibition (hCA-IX): Lineweaver–Burk / Dixon plots; for Vmaxapp (hCA-IX): maximum velocity of the enzyme in the presence of inhibitors; for Kmapp (hCA-IX): Michaelis–Menten constant in the presence of inhibitors
hCA-II [4] = target: T2, hCA-II (Homo sapiens, UniProt P00918); assay: In vitro inhibition of human CA-II (p-nitrophenyl acetate, 96-well plate); assay type: biochemical; details: for hCA-II IC50 ± SEM: unit not given; for Inhibitory activity for hCA-II in words: compared to acetazolamide
hCA-II [5] = target: T2, hCA-II; assay: Enzyme kinetic (mechanistic) studies on hCA-II; details: for Type of Inhibition (hCA-II): Lineweaver–Burk / Dixon plots; for Vmaxapp (hCA-II): maximum velocity of the enzyme in the presence of inhibitors
Method: In vitro inhibition of human CA (CA-II, and CA-IX) was performed in 96-well plate. Each well of the 96-well plate comprised 20 µL of the test compound (0.5 mM), 20 µL of the purified enzyme (0.1 mg/mL), 140 µL of the assay buffer (HEPES–tris, 20 mM), and 20 µL of the substrate (p-Nitrophenyl acetate; prepared in methanol), making a final volume of 200 µL. The assay procedure started with the incubation of the test compound, desired enzyme, and 140 µL of buffer for 15 min. […] All the in vitro testing results, e.g., percent inhibition, and the IC50 values were analyzed by EZ-Fit, which is a curve-fitting enzyme kinetics program (Perrella Scientific Inc., Amherst, MA, USA). All kinetic graphs were plotted by GraFit program (Horley, UK). Different parameters and their values, such as the values of intercepts, slopes, correlation coefficients, and their standard error means (SEMs), were calculated by the nonlinear regression analysis using the same program (GraFit program).
Certain parameters of the assay were changed in order to determine the mode of inhibition of compounds against specific enzymes.

[6] = Homo sapiens, MDA-MB-231, 48 h, read-out: MDA-MB-231 IC50, 48 h, MTT
[7] = read-out: MDA-MB-231 IC50, 48 h, MTT
[8] = purified enzyme, substrate p-nitrophenyl acetate, 25 °C, µM from b1

SMILES	Selectivity / specificity for hCA-IX (in words) (hCA-IX [1])	IC50 (hCA-IX [1])	viability at 48 h, 100 µM [2]	inhibition at 100 µM (MCF-10A)	IC50 (MCF-10A)	melting point	inhibition at 100 µM (MDA-MB-231; Homo sapiens, MDA-MB-231, 48 h)	viability at 100 µM (MDA-MB-231; Homo sapiens, MDA-MB-231, 48 h)	IC50 (MDA-MB-231; [6])	IC50 (MDA-MB-231; [7])	Ki (hCA-IX [3])	Type of Inhibition (hCA-IX) (hCA-IX [3])	Vmaxapp (hCA-IX) (hCA-IX [3])	hCA-II IC50 ± SEM (hCA-II [4]; [8])	Kmapp (hCA-IX) (hCA-IX [3])	IC50 (hCA-II [4])	Inhibitory activity for hCA-II in words (hCA-II [4])	also measured
Cc1ncc(-c2c(O)[nH]c(=S)[nH]c2=O)n1CCOC(=O)c1ccccc1 [Compound 7, 2-(5-(6-hydroxy-4-oxo-2-thioxo-1,2,3,4-tetrahydropyrimidin-5-yl)-2-methyl-1H-imidazol-1-yl) ethyl benzoate]	selective inhibitors of hCA-IX	9.6 ± 0.2 µM	86.8%	13.2%	> 100 µM	225 to 230 °C	69.2%	30.8%	64 µM	64 µM	7.32 ± 0.02 µM	competitive inhibition	23.01	Inactive				Inhibitory activity for hCA-IX in words (hCA-IX [1]): strong inhibitory activity
Cc1ncc(-c2c(O)[nH]c(=O)[nH]c2=O)[nH]1 [Compound 3, 6-hydroxy-5-(2-methyl-1H-imidazol-5-yl) pyrimidine-2,4(1H,3H)-dione]		10.9 ± 0.8 µM	85.7%	14.3%	> 100 µM	215 °C (dec.)	61.2%	38.8%	76.1 µM		8.01 ± 0.01 µM	competitive inhibition	23.01		0.38	30.7 ± 3.4 µM	weak activity	
Cc1ncc(C2=C(O)CCCC2=O)n1CCO [Compound 1, 3-hydroxy-2-(1-(2-hydroxyethyl)-2-methyl-1H-imidazol-5-yl) cyclohex-2-en-1-one]		23 ± 0.5 µM		13.2%	> 100 µM	186 to 190 °C	51.4%	48.6%	96 µM								potent inhibitory activity	Ki (hCA-II [5]): 9.14 ± 0.08 µM; Type of Inhibition (hCA-II) (hCA-II [5]): competitive inhibition; Vmaxapp (hCA-II) (hCA-II [5]): 19.32; Inhibitory activity for hCA-IX in words (hCA-IX [1]; compared to the standard acetazolamide): comparatively weak activity; viability at 48 h, 100 µM ([2]; MCF-10A normal breast epithelial cells): 86.8%; IC50 (hCA-II [4]; purified enzyme, substrate p-nitrophenyl acetate, 25 °C, unit inferred, µM from b1, read-out: hCA-II IC50 ± SEM): 11.6 ± 0.2 µM
Cc1ncc(-c2c(O)[nH]c(=S)[nH]c2=O)[nH]1 [Compound 4, 6-hydroxy-5-(2-methyl-1H-imidazol-5-yl)-2-thioxo-2,3-dihydropyrimidin-4(1H)-one]		17.1 ± 0.6 µM	82.1%	17.9%	> 100 µM		60.5%	39.5%	75.7 µM		15.02 ± 0.04 µM	competitive inhibition	23.01		0.43	31.1 ± 1.3 µM	weak activity	
Cc1ncc(-c2c(O)n(C)c(=O)n(C)c2=O)n1CCO [Compound 10, 6-hydroxy-5-(1-(2-hydroxyethyl)-2-methyl-1H-imidazol-5-yl)-1,3-dimethylpyrimidine-2,4(1H,3H)-dione]	selective inhibitors of hCA-IX	14.8 ± 0.1 µM	84.9%	15.1%	> 100 µM	163 to 165 °C	75.5%	24.5%	60.9 µM		13.24 ± 0.03 µM	competitive inhibition	23.01	Inactive	0.40			
Cc1ncc(-c2c(O)[nH]c(=S)[nH]c2=O)n1CCO [Compound 9, 6-hydroxy-5-(1-(2-hydroxyethyl)-2-methyl-1H-imidazol-5-yl)-2-thioxo-2,3-dihydropyrimidin-4(1H)-one]		19.9 ± 0.8 µM	84.5%	13.2%	> 100 µM		73.5%	26.5%	58.6 µM	58.6 µM	17.02 ± 0.02 µM	competitive inhibition	23.01		0.47	27.5 ± 1.3 µM	weak activity	
Cc1ncc(-c2c(O)n(C)c(=O)n(C)c2=O)n1CCOC(=O)c1ccccc1 [Compound 11, 2-(5-(6-hydroxy-1,3-dimethyl-2,4-dioxo-1,2,3,4-tetrahydropyrimidin-5-yl)-2-methyl-1H-imidazol-1-yl) ethyl benzoate]	selective inhibitors of hCA-IX	11.9 ± 0.3 µM	87.9%	12.1%	> 100 µM	180 to 185 °C	68.2%	31.8%	63.1 µM	63.1 µM	8.32 ± 0.05 µM	competitive inhibition	23.01		0.42	15.3 ± 0.3 µM	potent inhibitory activity	Ki (hCA-II [5]): 12.58 ± 0.04 µM; Type of Inhibition (hCA-II) (hCA-II [5]): competitive inhibition; Kmapp (hCA-II) (hCA-II [5]; Michaelis–Menten constant in the presence of inhibitors): 0.14; Vmaxapp (hCA-II) (hCA-II [5]): 19.32
Cc1ncc(-c2c(O)[nH]c(=O)[nH]c2=O)n1CCOC(=O)c1ccccc1 [Compound 5, 2-(5-(6-hydroxy-2,4-dioxo-1,2,3,4-tetrahydropyrimidin-5-yl)-2-methyl-1H-imidazol-1-yl) ethyl benzoate]			79.5%	20.5%	> 100 µM		82.1%	17.9%	53.6 µM					Inactive				hCA-IX IC50 ± SEM (hCA-IX [1]): Inactive; Toxicity to normal breast cells (MCF-10A) in words (MCF-10A; MTT): no toxicity; Anticancer/cytotoxic activity in MDA-MB-231 in words (MDA-MB-231; MTT): excellent anticancer/cytotoxic activity
Cc1ncc(-c2c(O)[nH]c(=O)[nH]c2=O)n1CCO [Compound 8, 6-hydroxy-5-(1-(2-hydroxyethyl)-2-methyl-1H-imidazol-5-yl) pyrimidine-2,4 (1H, 3H)-dione]	selective inhibitors of hCA-IX	32.2 ± 1 µM	84.5%	15.5%	> 100 µM		77.8%	22.2%	55.6 µM					Inactive				Inhibitory activity for hCA-IX in words (hCA-IX [1]): comparatively weak activity
Cc1ncc(-c2c(O)n(C)c(=O)n(C)c2=O)[nH]1 [Compound 6, 6-hydroxy-1,3-dimethyl-5-(2-methyl-1H-imidazol-5-yl) pyrimidine-2,4(1H,3H)-dione]			86.8%	13.2%	> 100 µM		58.4%	41.6%	79.4 µM					Inactive				hCA-IX IC50 ± SEM (hCA-IX [1]): Inactive
